Laboratory results taken from patent US6858632B2, “Derivatives of isosorbide mononitrate and its use as vasodilating agents with reduced tolerance” (Lacer, S.A., priority 1998, dated 2005).
“Also recorded” adds a separate entry of the source. Structures can show the parent of a compound that is named as a salt. Where two headings read alike, the source gives them in different places.

Experiments:
[1] = tested on: arterial ring previously contracted with 1 μM of Norepinephrine; assay: Test of vasodilatation (arterial rings pre-contracted with norepinephrine); settings: for EC50: read-out: CE50 (concentration effective 50), vasodilatation of 50% of the arterial ring (average ± SD)
Protocol: The method used in the assays is substantially the same as described in following references: • Furchgot, R. F. “Methods in nitric oxide research”. Feelisch & Stamler eds. John Wiley & Sons, Chichester, England, pp 567-581. • Trongvanichnam, K, et al. Jpn J. Pharmacol. 1996; 71:167-173. • Salas, E., et al. Eur. J. Pharmacol. 1994; 258:47-55.
(§1) The different compounds are tested at 5 different concentrations, at a concentration range from 0.001 to 10 mM, using from 6 to 9 arterial rings for each compound. The obtained results are compared to those from the isosorbide 5-mononitrate, which is used as reference product.
The results are shown in table 1 below and are provided as CE50 (concentration effective 50), which is the concentration of each of the tested compounds wherein there is produced a vasodilatation of 50% of the arterial ring previously contracted with 1 μM of Norepinephrine.

[2] = tested on: arterial segments of the rats; assay: Assay of tolerance (ex vivo vasodilatation of arterial segments after subcutaneous administration for three days); type: in vivo; settings: for development of tolerance (in words): rats, 10 mg/Kg s.c. each eight hours for three days
Protocol: The different compounds tested are subcutaneously administered to rats at a dose of 10 mg/Kg for three days, each eight hours, and the assay is then done ex vivo to test the capacity to vasodilate the arterial segments of the rats after the subcutaneous administration of the compound.
The method followed is substantially the same as described in following references: • De Garavilla, L., et al. Eur. J. Pharmacol. 1996; 313:89-96. • Keith, R. A., et al. J. Pharmacol. Exp. Ther. 1982; 221:525-531.
as §1, with “product, and with those obtained from the animals wherein there have not been administered any compound.” for “product.”

[3] = arterial ring previously contracted with 1 μM Norepinephrine, 6 to 9 rings, 0.001 to 10 mM

SMILES	EC50 [1] [µM]	vasodilating activity compared with the reference product (in words) ([1]; reference: isosorbide 5-mononitrate)	EC50 ([2]; Rattus norvegicus, sc, 72 h, read-out: CE50, animals without any compound administrated during three days (Group A) (average ± SD)) [µM]	EC50 at 10 mg/kg ([2]; Rattus norvegicus, sc, read-out: CE50, animals with compound administrated during three days (Group B) (average ± SD)) [µM]	development of tolerance (in words) [2]	EC50 [1, 3] [µM]	EC50 ([2]; Rattus norvegicus, sc, 72 h, Group A: rats not given any compound, ex vivo arterial rings, read-out: CE50, animals without any compound administrated during three days (Group A) (average ± SD)) [µM]	EC50 at 10 mg/kg ([2]; Rattus norvegicus, sc, Group B: rats given compound subcutaneously, 10 mg/Kg each eight hours for three days, ex vivo arterial rings, read-out: CE50, animals with compound administrated during three days (Group B) (average ± SD)) [µM]	development of tolerance (in words) ([2]; 10 mg/kg)	EC50 ([2]; Group A: rats not given any compound, ex vivo arterial rings, read-out: CE50, animals without any compound administrated during three days (Group A) (average ± SD)) [µM]	CE50 in treated animals relative to CE50 in not treated animals (times) ([2]; Group B versus Group A)	EC50 ([2]; Group B: rats given compound subcutaneously, 10 mg/Kg each eight hours for three days, ex vivo arterial rings, read-out: CE50, animals with compound administrated during three days (Group B) (average ± SD)) [µM]
CCSc1ncccc1C(=O)O[C@H]1CO[C@H]2[C@@H]1OC[C@H]2O[N+](=O)[O-] [Compound 1, isosorbide 2-(2′-ethylthio)nicotinate 5-mononitrate hydrochloride]	130 ± 10	superior to that of the reference product	130 ± 10	590 ± 100	development of less tolerance as compared to the reference product							
CC(=O)S[C@H]1CO[C@H]2[C@@H]1OC[C@H]2O[N+](=O)[O-] [Compound 5, 2-acetylmercaptoisosorbide 5-mononitrate]						950 ± 100	950 ± 100	990 ± 100	development of less tolerance as compared to the reference product; also recorded: practically null			
O=[N+]([O-])O[C@@H]1CO[C@H]2[C@@H]1OC[C@@H]2O [isosorbide 5-mononitrate, reference compound]					strong developments of tolerance	920 ± 200				920 ± 200	seven	6500 ± 1500
